Reference: patent US20070213338A1, “Triazolo-Pyridazine Compounds and Derivatives Thereof Useful in the Treatment of Neuropathic Pain” (priority 2003, published 2007)

System: nerve injury-induced tactile allodynia
Test: Spinal Nerve Ligation Model (Chung Model)
Type: in vivo, Male Sprague Dawley rats
Settings: rat, i.p. dosing at 30 mg/kg
Source text: The spinal nerve ligation model of neuropathic pain was used to assess the effects of test compounds on nerve injury-induced tactile allodynia (S. H. Kim and J. M. Chung, Pain 50:355-363(1992)). Male Sprague Dawley rats (175-200 g) received unilateral tight ligation of the left L5/L6 spinal nerves distal to the dorsal root ganglion using 4-0 silk suture. Behavioral nociceptive testing occurred 7-14 days following spinal nerve ligation by placing the rats in chambers on a wire mesh. Rats were tested for tactile allodynia (decreased hindpaw withdrawal threshold to non-noxious punctate stimulation) by applying a series of calibrated von Frey filaments to the plantar aspect of the left hindpaw ipsilateral to the site of nerve injury. The mean 50% hindpaw withdrawal threshold (g.) was determined using the Dixon “up-own” non-parametric test (Chaplan et al., J. Neurosci. Methods, 53:55-63(1994)). […] Following determination of pre-drug withdrawal thresholds, rats received either an i.p. or p.o. injection of test compound. The effect of the test compound on tactile allodynia was determined over time by measuring hindpaw withdrawal thresholds 30, 60, 90, 120 min post-injection.

| Structure (SMILES) | effect on tactile allodynia (hindpaw withdrawal threshold) [%] |
| --- | --- |
| FC(F)(F)c1nnc2c3ccccc3c(OCc3cccc(CNCCc4ccccc4)n3)nn12 [Example 58, Phenethyl-[6-(3-trifluoromethyl-[1,2,4]triazolo[3,4,-a]phthalazin-6-yloxymethyl)-pyridin-2-ylmethyl]-amine] | 100 |
| Cc1nnc2c3ccccc3c(OCc3cccc(CNCCc4ccccc4)n3)nn12 [Example 23] | 65 |
